Test results reported in patent US6664247B2, “Pyrazole compounds useful as protein kinase inhibitors” (Vertex Pharmaceuticals Incorporated, priority 2000, dated 2003).
pKi: −log10 of the molar value.

Biological target: T1, Aurora-2 (Homo sapiens, UniProt O14965)
T1 sequence (O14965 1-403): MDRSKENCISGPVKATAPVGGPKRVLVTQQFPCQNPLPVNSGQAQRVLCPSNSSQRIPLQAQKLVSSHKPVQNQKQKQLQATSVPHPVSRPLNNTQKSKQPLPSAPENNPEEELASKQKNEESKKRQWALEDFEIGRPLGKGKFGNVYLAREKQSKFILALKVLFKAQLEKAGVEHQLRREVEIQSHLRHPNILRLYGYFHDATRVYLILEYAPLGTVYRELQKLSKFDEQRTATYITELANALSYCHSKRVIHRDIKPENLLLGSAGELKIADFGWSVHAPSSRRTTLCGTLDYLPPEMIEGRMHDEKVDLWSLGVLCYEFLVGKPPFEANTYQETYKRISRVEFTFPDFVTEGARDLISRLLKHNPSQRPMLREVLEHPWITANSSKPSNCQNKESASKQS
Assay: Ki determination for the inhibition of Aurora-2 (coupled enzyme assay)
Format: biochemical
Details: 70 nM Aurora-2, 800 μM peptide LRRASLG, 30° C.
Description: To an assay stock buffer solution containing 0.1 M HEPES 7.5, 10 mM MgCl2, 1 mM DTT, 25 mM NaCl, 2.5 mM phosphoenolpyruvate, […], 30 mg/ml pyruvate kinase, 10 mg/ml lactate dehydrogenase, 40 mM ATP, and 800 μM peptide (LRRASLG, American Peptide, Sunnyvale, Calif.) was added a DMSO solution of a compound of the present invention to a final concentration of 30 μM. The resulting mixture was incubated at 30° C. for 10 min. The reaction was initiated by the addition of 10 μL of Aurora-2 stock solution to give a final concentration of 70 nM in the assay. […] The Ki values were determined from the rate data as a function of inhibitor concentration.

pKi: 6.00 to 7.00
Compound: Cc1cc(Nc2cc(-c3ccccc3)nc(Nc3ccccc3)n2)n[nH]1 [IIIc-1, (5-Methyl-2H-pyrazol-3-yl)-(6-phenyl-2-phenylamino-pyrimidin-4-yl)-amine]
